The assay relates to 17S resistant S. aureus USA300 strains. Nature of the assay: Susceptibility of 17S resistant strains. It is filed as cell-based, Staphylococcus aureus. Particulars: 17S resistant S. aureus USA300 strains tested against 1S.

Take humimycin A [1S]: the “cross-resistance of 17S resistant strains” value is reported as “cross-resistance”.

These data come from PMC7163398 (ACS infectious diseases, 2017).
